Measured values from patent US11517550B2 (priority 2008, dated 2022).

tested on: Clostridium perfringens ATCC 13124; format: cell-based; settings: brain heart infusion broth, pH 6.0, 30° C., 0% oxygen

Row | Substance | MIC values (%)
1 | C8 lactylate | 0.05
2 | C10 lactylate | 0.04
3 | C12 lactylate | 0.002
4 | C14 lactylate | 0.001
5 | C16 lactylate | 0.002
6 | C18:1 lactylate | 0.02
